pIC50: −log10 of the molar value.
Legend:
[1] = target: human FABP5 (huFABP5) (Homo sapiens (Human), UniProt Q01469); test: Tb TR-FRET assay, binding of Bodipy labeled fatty acid to His6 tagged huFABP5; settings: 50 nM FABP protein, […] Bodipy labeled fatty acid; read-out: IC50 h-fabp5-ecoli-r
[2] = target: human FABP4 (huFABP4) (Homo sapiens (Human), UniProt P15090); test: Tb TR-FRET assay, binding of Bodipy labeled fatty acid to His6 tagged huFABP4; settings: 50 nM FABP protein, […] Bodipy labeled fatty acid; read-out: IC50 h-fabp4-ecoli-r
[3] = system: mice under HF diet; settings: cited from earlier work
[4] = system: ob/ob mice; settings: cited from earlier work
[5] = system: ApoE KO mice; settings: cited from earlier work

Sequence of human FABP4 (huFABP4) (P15090 whole entry): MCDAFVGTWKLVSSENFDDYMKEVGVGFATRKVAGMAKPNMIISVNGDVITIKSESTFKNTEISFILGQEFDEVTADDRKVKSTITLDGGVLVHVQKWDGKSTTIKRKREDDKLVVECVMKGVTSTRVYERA
Sequence of human FABP5 (huFABP5) (Q01469 whole entry): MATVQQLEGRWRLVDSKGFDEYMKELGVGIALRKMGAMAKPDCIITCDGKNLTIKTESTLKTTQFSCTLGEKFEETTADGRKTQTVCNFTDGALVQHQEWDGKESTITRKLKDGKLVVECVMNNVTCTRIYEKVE

| Compound | pIC50 [1] | pIC50 [2] | also measured |
| --- | --- | --- | --- |
| O=C(O)[C@H]1CCCN1C(=O)Nc1cc(Cl)ccc1-c1cccc(Cl)c1 [Example 55, (R)-1-(3′,4-dichlorobiphenyl-2-ylcarbamoyl)pyrrolidine-2-carboxylic acid] | < 4.30 | 6.11 | – |
| O=C(O)[C@H]1CCCN1C(=O)Nc1cc(F)ccc1-c1ccccc1 [Example 16, (R)-1-(4-fluorobiphenyl-2-ylcarbamoyl)pyrrolidine-2-carboxylic acid] | < 4.30 | 5.97 | – |
| O=C(O)[C@H]1CCCN1C(=O)Nc1ccccc1Oc1ccccc1 [Compound 3] | – | – | insulin and glucose tolerance [3]: no improvement; plasma triglyceride and free fatty acid [3]: reduction |
| O=C(O)[C@H]1CSCN1C(=O)Nc1ccccc1-c1ccccc1 [Example 8, (S)-3-(Biphenyl-2-ylcarbamoyl)-thiazolidine-4-carboxylic acid] | < 4.30 | 6.48 | – |
| O=C(O)[C@H]1CCCN1C(=O)Nc1ccccc1Cc1ccccc1 [Example 4, (R)-1-(2-benzylphenylcarbamoyl)pyrrolidine-2-carboxylic acid] | < 4.30 | 5.48 | – |
| O=C(O)[C@H]1CCCN1C(=O)Nc1ccccc1Oc1ccccc1 [Example 3, (R)-1-(2-phenoxyphenylcarbamoyl)pyrrolidine-2-carboxylic acid] | < 4.30 | 4.93 | – |
| Cc1ccccc1-c1ccc(Cl)cc1NC(=O)N1CCC[C@@H]1C(=O)O [Example 61, (R)-1-(4-chloro-2′-methylbiphenyl-2-ylcarbamoyl)pyrrolidine-2-carboxylic acid] | < 4.30 | 5.56 | – |
| N#Cc1cc(Cl)cc(NC(=O)N2CCC[C@@H]2C(=O)O)c1-c1ccccc1 [Example 25, (R)-1-(4-chloro-6-cyanobiphenyl-2-ylcarbamoyl)pyrrolidine-2-carboxylic acid] | 4.82 | 6.72 | – |
| CCc1c(-c2ccccc2)c(-c2ccccc2)nn1-c1ccccc1-c1cccc(OCC(=O)O)c1 [BMS309403] | – | – | glucose uptake in muscle and adipose ([4]; clamp study in ob/ob mice): increased; hepatic glucose production ([4]; clamp study in ob/ob mice): reduction; body weight and energy consumption ([4]; ob/ob mice): no change; hepatic steatosis ([4]; ob/ob mice): reduction; atherosclerotic placques formation [5]: decrease |
| O=C(O)[C@H]1CCCN1C(=O)Nc1cc(Cl)ccc1Oc1ccccc1 [Example 5, (R)-1-(5-chloro-2-phenoxyphenylcarbamoyl)pyrrolidine-2-carboxylic acid] | < 4.30 | 5.13 | – |
